Test results from patent US11319304B2, “Pyridine quinoline compounds as MGLUR4 allosteric potentiators, compositions, and methods of treating neurological dysfunction” (Vanderbilt University, priority 2017, dated 2022).

Target: mGluR4 (Homo sapiens, UniProt Q14833)
Experiment: mGlu4 PAM potentiation assay, CHO cells transfected with human mGluR4, Ca2+-sensitive dye fluorescence
Format: cell-based
Description: The disclosed compounds and compositions can be evaluated for their ability to act as a potentiator of metabotropic glutamate receptor activity, in particular mGluR4 activity, by any suitable known methodology known in the art. For example, Chinese Hamster Ovary (CHO) cells transfected with human mGluR4 or HEK cells co-transfected with rat mGluR4 and the G-protein regulated Inwardly Rectifying Potassium channel (GIRK) were plated in clear bottom, assay plates for assay in a Hamamatsu FDSS Fluorometric Plate Reader. The cells were loaded with either a Ca2+-sensitive fluorescent dye or the thallium responsive dye and the plates were washed and placed into a suitable kinetic plate reader. For human mGluR4 assays, a fluorescence baseline was established for 3-5 seconds, the disclosed compounds were then added to the cells, and the response in cells was measured. Approximately two and a half minutes later, a concentration of mGluR4 orthosteric agonist (e.g. glutamate, L-AP4, or L-SOP) eliciting approximately 20% (EC20) of the maximal agonist response was added to the cells, and the response was measured. Two minutes later, a concentration of mGluR4 agonist (e.g. glutamate, L-AP4, or L-SOP) eliciting 80% (EC80) of the maximal agonist response was added to the cells, and the response was measured. For rat mGluR4/GIRK experiments, a baseline was established for approximately five seconds, disclosed compounds were added, and either an EC20 or EC80 concentration of agonist was added approximately two and one half minutes later. Potentiation or antagonism of the agonist response of mGluR4 by the disclosed compounds was observed as an increase or decrease in response to the EC20 concentration of agonist in the presence of compound compared to the response to agonist in the absence of compound. Similarly, potentiation or antagonism of the agonist response of mGluR4 by the disclosed Compounds was observed as an increase or decrease in response to the EC80 concentration of agonist in the presence of compound compared to the response to agonist in the absence of compound.
The above described assay operated in two modes. In the first mode, a range of concentrations of the disclosed compounds are added to cells, followed by a single fixed concentration of agonist. If the compound acts as a potentiatior, an EC50 value for potentiation and a maximum extent of potentiation by the compound at this concentration of agonist is determined by non-linear curve fitting. If the compound acts as an antagonist, an IC50 value is determined by non-linear curve fitting. In the second mode, several fixed concentrations of the disclosed compounds are added to various wells on a plate, followed by a range in concentrations of agonist for each concentration of disclosed compound. The EC50 values for the agonist at each concentration of compound are determined by non-linear curve fitting. A decrease in the EC50 value of the agonist with increasing concentrations of the sample compound (a leftward shift of the agonist concentration-response curve) is an indication of the degree of mGluR4 potentiation at a given concentration of the sample compound. A decrease in the maximal response of the agonist with increasing concentrations of the sample compounds, with or without a rightward shift in agonist potency, is an indication of the degree of antagonism at mGluR4. The second mode also indicates whether the sample compounds also affect the maximum response to mGluR4 to agonists.

Sequence of mGluR4 (Q14833 33-912 limits assumed): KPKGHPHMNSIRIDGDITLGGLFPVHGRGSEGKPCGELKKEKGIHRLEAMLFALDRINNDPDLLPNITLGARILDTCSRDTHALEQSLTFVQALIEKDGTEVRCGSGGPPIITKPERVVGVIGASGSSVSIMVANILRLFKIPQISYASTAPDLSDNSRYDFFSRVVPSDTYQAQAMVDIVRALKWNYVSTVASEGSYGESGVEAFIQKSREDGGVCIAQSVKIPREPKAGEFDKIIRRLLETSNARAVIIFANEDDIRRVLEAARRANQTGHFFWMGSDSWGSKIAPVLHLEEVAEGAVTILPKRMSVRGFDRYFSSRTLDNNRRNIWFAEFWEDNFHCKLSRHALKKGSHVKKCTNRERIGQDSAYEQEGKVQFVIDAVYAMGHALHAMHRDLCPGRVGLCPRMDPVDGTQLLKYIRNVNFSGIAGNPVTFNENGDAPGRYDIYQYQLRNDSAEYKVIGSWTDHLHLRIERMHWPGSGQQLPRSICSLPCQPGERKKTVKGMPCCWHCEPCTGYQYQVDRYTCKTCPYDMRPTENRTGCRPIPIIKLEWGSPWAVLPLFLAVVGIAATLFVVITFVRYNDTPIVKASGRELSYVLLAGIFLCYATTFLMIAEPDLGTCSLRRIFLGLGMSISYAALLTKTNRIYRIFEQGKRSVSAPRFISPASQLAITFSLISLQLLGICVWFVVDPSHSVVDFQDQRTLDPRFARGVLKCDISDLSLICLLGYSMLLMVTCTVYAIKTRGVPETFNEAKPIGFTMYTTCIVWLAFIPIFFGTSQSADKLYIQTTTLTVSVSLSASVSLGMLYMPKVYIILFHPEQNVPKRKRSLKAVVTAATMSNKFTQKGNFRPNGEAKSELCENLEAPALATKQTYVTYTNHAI

| EC50 [nM] | Compound |
| --- | --- |
| 421 | O=C(Nc1ccc2c(OCC3COCCO3)ncc(F)c2c1)c1ccccn1 (stereo not shown) [Compound 69] |
| 183 | O=C(Nc1ccc2c(OCC3CCOC3)nccc2c1)c1cccc(F)n1 (stereo not shown) [Compound 87] |
| 529 | Nc1cccnc1C(=O)Nc1ccc2c(O[C@H]3CCOC3)nccc2c1 [Compound 10] |
| 211 | O=C(Nc1ccc2c(OCC3CCOC3)nccc2c1)c1ccc(F)cn1 (stereo not shown) [Compound 72] |
| 183 | O=C(Nc1ccc2c(OC3CCOCC3F)nccc2c1)c1ccccn1 (stereo not shown) [Compound 40] |
| 436 | CCOCCOc1nccc2cc(NC(=O)c3ccccn3)ccc12 [Compound 3] |
| 92.2 | O=C(Nc1ccc2c(OC3CCOCC3F)nccc2c1)c1ncccc1O (stereo not shown) [Compound 42] |
| 264 | CC(C)OCCOc1nccc2cc(NC(=O)c3ccccn3)ccc12 [Compound 26] |
| 228 | O=C(Nc1ccc2c(OCc3cccnc3)nccc2c1)c1ccc(F)cn1 [Compound 114] |
| 665 | CC1(C)CC(COc2nccc3cc(NC(=O)c4ncccc4N)ccc23)CO1 (stereo not shown) [Compound 49] |
| 285 | O=C(Nc1ccc2c(OCC3COCCO3)nccc2c1)c1ccc(F)cn1 (stereo not shown) [Compound 119] |
| 166 | CO[C@H](C)COc1nccc2cc(NC(=O)c3ccccn3)ccc12 [Compound 6] |
| 88.6 | CC1CC(COc2nccc3cc(NC(=O)c4ccccn4)ccc23)CCO1 (stereo not shown) [Compound 37] |
| 83.6 | Nc1cccnc1C(=O)Nc1ccc2c(OC3CCOCC3F)nccc2c1 (stereo not shown) [Compound 41] |
| 115 | CC1(C)CC(COc2nccc3cc(NC(=O)c4ccccn4)ccc23)CCO1 (stereo not shown) [Compound 34] |
| 715 | O=C(Nc1ccc2c(NC3CC(F)(F)C3)nccc2c1)c1ccccn1 [Compound 75] |

The remaining lines, values behind:

| Compound | EC50 [nM] |
| --- | --- |
| Nc1cccnc1C(=O)Nc1ccc2c(OC[C@H]3CCOC3)nccc2c1 [Compound 62] | 63 |
| Nc1cccnc1C(=O)Nc1ccc2c(OCC3CCOCC3)ncc(F)c2c1 [Compound 66] | 152 |
| O=C(Nc1ccc2c(OCC3CCOC3)nccc2c1)c1ncc(F)cc1Cl (stereo not shown) [Compound 88] | 910 |
| O=C(Nc1ccc2c(OCC3CCOC3)nccc2c1)c1ccc(O)cn1 (stereo not shown) [Compound 108] | 65.9 |
| O=C(Nc1cc(F)c2c(OCC3COCCO3)nccc2c1)c1ccc(F)cn1 (stereo not shown) [Compound 93] | 302 |
| Nc1cccnc1C(=O)Nc1ccc2c(O[C@H]3CCOC3)ncc(F)c2c1 [Compound 71] | 493 |
| O=C(Nc1ccc2c(OCC3CCOC3)nccc2c1)c1nc(Cl)ccc1F (stereo not shown) [Compound 89] | 822 |
| O=C(Nc1ccc2c(OCC3CCOCC3)ncc(F)c2c1)c1ncccc1O [Compound 67] | 246 |
| O=C(Nc1ccc2c(OCC3COCCO3)ncc(F)c2c1)c1ncccc1O (stereo not shown) [Compound 70] | 710 |
| Nc1cccnc1C(=O)Nc1ccc2c(OC3CCOCC3)nccc2c1 [Compound 13] | 290 |
| Nc1cccnc1C(=O)Nc1cnc2c(OCC3CCOCC3)nccc2c1 [Compound 121] | 116 |
| CCOCCOc1nccc2cc(NC(=O)c3ncccc3O)ccc12 [Compound 5] | 229 |
| O=C(Nc1cc(F)c2c(OCC3CCOCC3)nccc2c1)c1ncccc1F [Compound 96] | 102 |
| Cc1ccoc1C(=O)Nc1ccc2c(OCC3CCOCC3)nccc2c1 [Compound 111] | 122 |
| Nc1cccnc1C(=O)Nc1ccc2c(OC[C@@H]3CCOC3)nccc2c1 [Compound 61] | 114 |
| Cn1ccnc1C(=O)Nc1ccc2c(OCC3CCOC3)nccc2c1 (stereo not shown) [Compound 59] | 817 |
| CC1CC(COc2nccc3cc(NC(=O)c4ncccc4N)ccc23)CCO1 (stereo not shown) [Compound 38] | 135 |
| Nc1cccnc1C(=O)Nc1cc(F)c2c(OCC3COCCO3)nccc2c1 (stereo not shown) [Compound 91] | 94 |
| CC(C)(C)OCCOc1nccc2cc(NC(=O)c3ncccc3O)ccc12 [Compound 30] | 493 |
| Nc1cccnc1C(=O)Nc1ccc2c(OCC3COCCO3)nccc2c1 (stereo not shown) [Compound 116] | 63.7 |
| Nc1cccnc1C(=O)Nc1cc(F)c2c(OCC3CCOC3)nccc2c1 (stereo not shown) [Compound 79] | 48.2 |
